Data on 9 compounds can be found in ChEMBL document CHEMBL1145900, “Histone deacetylase inhibitors” (J Med Chem, 2003).

Values after ≈ are worked out from the molar mass of the structure shown. Some results are limits rather than exact numbers.

The target in experiment [1] is T1, Histone deacetylase (Homo sapiens) (UniProt Q13547+O15379+Q9UBN7+Q92769+Q9UQL6+Q8WUI4+Q9BY41+Q96DB2+P56524+Q9UKV0+Q969S8). Briefly: Percent inhibition against isolated Histone deacetylase enzyme at 30 uM. The class given is protein assay.
The target in experiment [2] is T2, Histone deacetylase HD2 (Zea mays, UniProt Q94F81).
T2 sequence (Q94F81 whole entry): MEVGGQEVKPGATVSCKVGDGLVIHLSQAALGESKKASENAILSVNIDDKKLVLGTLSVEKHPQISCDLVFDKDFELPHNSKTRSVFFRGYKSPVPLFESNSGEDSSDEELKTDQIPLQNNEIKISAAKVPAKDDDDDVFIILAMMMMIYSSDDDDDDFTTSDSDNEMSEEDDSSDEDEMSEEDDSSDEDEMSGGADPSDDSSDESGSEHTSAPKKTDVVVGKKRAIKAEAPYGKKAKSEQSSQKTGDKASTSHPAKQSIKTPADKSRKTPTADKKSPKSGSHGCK
The experiment in a line: Inhibitory concentration against maize Histone deacetylase 2.

A short description of experiment [3]: Inhibitory concentration against mixed human Histone deacetylase 1, Histone deacetylase 2 and Histone deacetylase 3.
In experiment [4] the target is Histone deacetylase 1 (Homo sapiens, UniProt Q13547). Briefly: Inhibitory concentration against human Histone deacetylase 1.
Sequence of Histone deacetylase 1 (Homo sapiens, UniProt Q13547) (Q13547 whole entry): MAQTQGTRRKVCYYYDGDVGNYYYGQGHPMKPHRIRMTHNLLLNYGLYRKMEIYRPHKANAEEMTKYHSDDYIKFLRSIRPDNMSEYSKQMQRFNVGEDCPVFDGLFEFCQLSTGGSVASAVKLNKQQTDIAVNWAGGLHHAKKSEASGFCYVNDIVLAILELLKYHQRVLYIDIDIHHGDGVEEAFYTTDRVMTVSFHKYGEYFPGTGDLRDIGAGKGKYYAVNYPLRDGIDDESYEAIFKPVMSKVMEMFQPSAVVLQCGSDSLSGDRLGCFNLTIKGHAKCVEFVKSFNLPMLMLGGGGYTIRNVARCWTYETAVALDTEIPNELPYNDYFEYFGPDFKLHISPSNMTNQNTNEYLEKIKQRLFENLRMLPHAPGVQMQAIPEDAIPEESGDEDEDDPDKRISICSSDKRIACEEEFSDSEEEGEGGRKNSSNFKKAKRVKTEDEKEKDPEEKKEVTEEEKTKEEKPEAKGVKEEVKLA
In experiment [5] the target is Histone deacetylase 1 (Homo sapiens, UniProt Q13547, C151S). Briefly: Inhibitory concentration against human Histone deacetylase 1 (C151S).
Sequence of Histone deacetylase 1 (Homo sapiens, UniProt Q13547, C151S) (Q13547 whole entry C151S): as the sequence (Q13547 whole entry) above, with C151S counted along it
In experiment [6] the target is Histone deacetylase 2 (Homo sapiens, UniProt Q92769). The experiment in a line: Inhibitory concentration against human Histone deacetylase 2.
Sequence of Histone deacetylase 2 (Q92769 whole entry): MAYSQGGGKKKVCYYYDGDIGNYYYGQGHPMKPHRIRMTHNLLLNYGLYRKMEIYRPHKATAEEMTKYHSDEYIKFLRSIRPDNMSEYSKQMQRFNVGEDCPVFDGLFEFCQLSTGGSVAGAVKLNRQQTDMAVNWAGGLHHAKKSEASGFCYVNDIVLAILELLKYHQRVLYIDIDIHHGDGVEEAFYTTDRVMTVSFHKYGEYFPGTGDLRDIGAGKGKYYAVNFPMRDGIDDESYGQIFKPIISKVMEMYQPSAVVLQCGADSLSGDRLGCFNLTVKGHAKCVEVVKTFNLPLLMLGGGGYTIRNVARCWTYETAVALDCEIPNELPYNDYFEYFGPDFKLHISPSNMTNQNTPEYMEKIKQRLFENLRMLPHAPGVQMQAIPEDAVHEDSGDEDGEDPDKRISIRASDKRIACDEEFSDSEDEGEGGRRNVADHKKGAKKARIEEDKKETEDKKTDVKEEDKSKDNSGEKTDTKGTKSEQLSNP
The target of experiment [7] is Histone deacetylase 4 (Homo sapiens, UniProt P56524).
Sequence of Histone deacetylase 4 (P56524 whole entry): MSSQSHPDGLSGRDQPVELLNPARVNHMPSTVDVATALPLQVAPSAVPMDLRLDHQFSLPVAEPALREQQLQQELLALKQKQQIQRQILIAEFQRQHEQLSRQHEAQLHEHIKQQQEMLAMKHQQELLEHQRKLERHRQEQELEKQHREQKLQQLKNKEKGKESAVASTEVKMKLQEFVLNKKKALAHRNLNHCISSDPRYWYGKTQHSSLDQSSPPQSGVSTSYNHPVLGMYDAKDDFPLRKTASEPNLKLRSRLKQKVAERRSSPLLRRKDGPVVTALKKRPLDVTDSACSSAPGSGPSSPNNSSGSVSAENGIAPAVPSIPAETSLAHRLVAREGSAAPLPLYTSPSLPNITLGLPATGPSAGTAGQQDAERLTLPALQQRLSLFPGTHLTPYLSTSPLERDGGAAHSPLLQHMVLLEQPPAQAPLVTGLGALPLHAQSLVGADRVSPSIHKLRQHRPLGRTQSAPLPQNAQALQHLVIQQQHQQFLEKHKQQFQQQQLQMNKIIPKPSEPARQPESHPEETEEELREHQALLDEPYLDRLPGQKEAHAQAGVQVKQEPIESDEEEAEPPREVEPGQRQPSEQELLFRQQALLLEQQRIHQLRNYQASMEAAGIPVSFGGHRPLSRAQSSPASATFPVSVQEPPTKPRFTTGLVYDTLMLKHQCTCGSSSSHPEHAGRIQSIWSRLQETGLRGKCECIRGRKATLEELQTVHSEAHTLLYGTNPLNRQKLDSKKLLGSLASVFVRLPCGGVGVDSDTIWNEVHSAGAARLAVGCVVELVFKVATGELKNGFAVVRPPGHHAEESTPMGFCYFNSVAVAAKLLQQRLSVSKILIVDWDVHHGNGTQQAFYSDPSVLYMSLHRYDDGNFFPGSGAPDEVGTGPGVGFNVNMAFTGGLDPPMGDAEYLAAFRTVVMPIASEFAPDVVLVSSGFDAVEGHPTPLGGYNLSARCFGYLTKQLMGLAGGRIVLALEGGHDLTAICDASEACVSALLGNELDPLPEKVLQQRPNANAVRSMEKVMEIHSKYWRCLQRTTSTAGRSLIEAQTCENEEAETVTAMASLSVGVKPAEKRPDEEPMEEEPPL
Description: Inhibitory concentration against human Histone deacetylase 4
Experiment [8] addresses T3, Protein deacetylase HDAC6 (Homo sapiens, UniProt Q9UBN7).
T3 sequence (Q9UBN7 whole entry): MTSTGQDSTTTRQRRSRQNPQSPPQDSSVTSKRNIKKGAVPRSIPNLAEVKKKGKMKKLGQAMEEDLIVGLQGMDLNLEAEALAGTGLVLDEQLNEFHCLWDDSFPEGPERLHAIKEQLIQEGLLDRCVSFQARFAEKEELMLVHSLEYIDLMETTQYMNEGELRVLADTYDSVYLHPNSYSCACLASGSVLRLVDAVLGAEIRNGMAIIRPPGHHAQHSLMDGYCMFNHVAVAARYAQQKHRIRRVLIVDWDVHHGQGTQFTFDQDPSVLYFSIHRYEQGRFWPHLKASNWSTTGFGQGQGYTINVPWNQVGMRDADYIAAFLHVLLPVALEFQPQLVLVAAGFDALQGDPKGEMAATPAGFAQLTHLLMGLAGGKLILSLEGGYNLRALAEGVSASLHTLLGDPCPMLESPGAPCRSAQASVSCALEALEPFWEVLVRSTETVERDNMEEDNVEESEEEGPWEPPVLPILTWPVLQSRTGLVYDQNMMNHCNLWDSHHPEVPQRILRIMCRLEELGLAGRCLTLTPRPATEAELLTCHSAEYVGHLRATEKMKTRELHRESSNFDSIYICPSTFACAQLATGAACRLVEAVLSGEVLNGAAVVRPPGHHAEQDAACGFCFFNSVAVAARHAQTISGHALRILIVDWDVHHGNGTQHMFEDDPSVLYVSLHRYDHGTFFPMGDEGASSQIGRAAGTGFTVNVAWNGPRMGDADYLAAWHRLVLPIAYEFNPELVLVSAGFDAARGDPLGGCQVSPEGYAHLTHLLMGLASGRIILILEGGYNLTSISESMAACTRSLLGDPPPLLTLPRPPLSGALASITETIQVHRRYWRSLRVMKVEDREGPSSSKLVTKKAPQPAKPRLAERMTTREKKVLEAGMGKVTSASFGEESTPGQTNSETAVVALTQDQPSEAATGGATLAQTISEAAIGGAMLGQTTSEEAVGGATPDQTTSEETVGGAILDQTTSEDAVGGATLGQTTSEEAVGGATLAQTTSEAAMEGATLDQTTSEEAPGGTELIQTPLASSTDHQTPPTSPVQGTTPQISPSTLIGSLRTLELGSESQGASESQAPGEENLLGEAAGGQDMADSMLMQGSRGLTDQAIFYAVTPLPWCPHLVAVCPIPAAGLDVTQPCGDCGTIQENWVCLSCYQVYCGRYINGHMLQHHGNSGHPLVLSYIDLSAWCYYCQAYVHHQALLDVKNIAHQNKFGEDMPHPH
The experiment in a line: Inhibitory concentration against human Histone deacetylase 6.

Experiment [9] addresses T1, Histone deacetylase (Homo sapiens). The experiment in a line: Inhibitory concentration against human Histone deacetylase. The class given is protein assay. The following applies: concentration not given here.
Experiment [10] has as its system HT-29. The experiment in a line: In vitro inhibitory concentration against HT-29 tumor cell proliferation. The class given is functional, cell-based. The settings on record: Homo sapiens.
Experiment [11] has as its system Jurkat. Briefly: In vitro inhibitory concentration against human Jurkat cell proliferation. The class given is functional, cell-based.
Experiment [12] has as its target Histone deacetylase. It is filed as protein assay, Homo sapiens.
Description: Inhibitory concentration against histone deacetylase
In experiment [13] the test system is HCT-116. The experiment in a line: Inhibitory concentration against HCT116 cells proliferation. The class given is functional, cell-based. The following applies: Homo sapiens.

The compound `Cn1cc(C(=O)Cc2ccccc2)cc1/C=C/C#N` had an inhibition in experiment [1] of 0%.

Take `CN(C)c1ccc(C(=O)Nc2ccc(CC(=O)NO)cc2)cc1`: in experiment [2], the IC50 was more than 40000 nM.

In the case of `N#Cc1ccc(-c2ccc(OCCCCCCC(=O)NO)cc2)cc1`, inhibition in experiment [3] was half-maximal at 9 nM (IC50).

With `C/C=C1\NC(=O)[C@@H](CSC)NC(=O)[C@@H](C(C)C)CC(=O)C[C@@H](/C=C/CCSC)OC(=O)[C@H](C(C)C)NC1=O`, the IC50 was 6300 nM in [4]; more than 100000 nM in [5]; 3300 nM in experiment [6]; 110000 nM in [7]; more than 100000 nM in experiment [8].

As to `O=C(CCCCCCCOc1ccc(-c2ccccc2)cc1)C(F)(F)F`, the inhibition in experiment [9] was found to be 72%.

Regarding `CCC(=O)CCCCC[C@@H]1NC(=O)[C@H]2CCCCN2C(=O)[C@H](Cc2ccccc2)NC(=O)[C@H](Cc2ccccc2)NC1=O`, the concentration for half-maximal inhibition (IC50) in experiment [10] is 0.158 µg/mL (≈ 0.268 µM); in experiment [11], 0.152 µg/mL (≈ 0.258 µM).

Turning to `O=C(/C=C/c1ccc(CNCCCc2ccccc2)cc1)NO`, the IC50 in experiment [12] and in experiment [13] was 64 nM throughout.

On to `C/C=C1\NC(=O)[C@H]2CSSCC/C=C/[C@H](CC(=O)N[C@H](C(C)C)C(=O)N2)OC(=O)[C@H](C(C)C)NC1=O` [ROMIDEPSIN], for which the IC50 in [5] is 280 nM.

Consider `C/C=C1\NC(=O)[C@@H](CS)NC(=O)[C@@H](C(C)C)NC(=O)C[C@@H](/C=C/CCS)OC(=O)[C@H](C(C)C)NC1=O` [FR-135313], for which the concentration for half-maximal inhibition (IC50) in experiment [6] came out at 3.9 nM; in experiment [7] it was 25 nM; in experiment [8] it was 790 nM.

In general, inhibition refers to the relative decrease from the control value, in per cent. Read a high inhibition as a strong effect. As a reminder, the IC50 is the midpoint of a concentration-inhibition curve.
